The results in this text go back to patent US8293781B2, “Indole derivatives having cPLA2 inhibiting activity and applications and production methods of the same” (Daiichi Sankyo Company, Limited, priority 2007, dated 2012).

Structures are written as SMILES. Counter-ions that a name gives are not always drawn.

Test [1] relates to PGE2 production in mouse peritoneal exudate cells. As to the kind of experiment: LPS-induced PGE2 production system using mouse peritoneal exudate cells. It counts as cell-based. The following applies: LPS 10 μg/ml, 6 hours. Here is the method: For evaluation of the PGE2 production inhibiting activity, the lipopolysaccharide (LPS)-induced PGE2 production system using mouse peritoneal exudate cells with reference to the method of Kim et al. (see Kim, Y K et al., Biol Pharm Bull 25: 472, 2002) was used. That is, 2 ml of thioglycolate solution (made by Sigma, Brewer's Thioglycorate medium) per mice were intraperitoneally administered to 8-week old female C3H/HeN mice (Charles River Japan). After 4 days, a phosphate buffer saline (PBS) 5 ml was used to wash the abdominal cavity and the infiltrating cells were recovered. The recovered cells were suspended in a predetermined concentration in an RPMI1640 medium (Nacalai Tesque) containing 10% bovine fetal serum (BioWhittaker) and 10 μg/ml gentamycin (Invitrogen).
The infiltrating cell suspension 100 μl containing 2×10^5 cells per well was inoculated in a 96-well culture plate, then the test compound solution or solvent 50 μl was added. Under conditions of 5% CO2 and 37° C., this was precultured for 15 minutes, then LPS (made by Sigma: L-4524) solution 50 μl (final concentration of LPS of 10 μg/ml) was added, and the mixture was cultured for a further 6 hours. After the end of the culture, the culture supernatant was recovered and the PGE2 concentration in the supernatant was measured using an EIA kit (made by Amersham). Based on the measurement value, the test compound concentration suppressing 50% of the PGE2 production at the time of non-addition of a compound (IC50 value) was calculated.

Test [2] deals with T1, cPLA2 crudely purified from the cytoplasm fraction of U937 (Homo sapiens, UniProt P47712).
T1 construct: cPLA2 crudely purified from the cytoplasm fraction of U937; endogenous in cells; host or cells: U937 cells (cytoplasm fraction, crude purification)
T1 sequence (P47712 1-749): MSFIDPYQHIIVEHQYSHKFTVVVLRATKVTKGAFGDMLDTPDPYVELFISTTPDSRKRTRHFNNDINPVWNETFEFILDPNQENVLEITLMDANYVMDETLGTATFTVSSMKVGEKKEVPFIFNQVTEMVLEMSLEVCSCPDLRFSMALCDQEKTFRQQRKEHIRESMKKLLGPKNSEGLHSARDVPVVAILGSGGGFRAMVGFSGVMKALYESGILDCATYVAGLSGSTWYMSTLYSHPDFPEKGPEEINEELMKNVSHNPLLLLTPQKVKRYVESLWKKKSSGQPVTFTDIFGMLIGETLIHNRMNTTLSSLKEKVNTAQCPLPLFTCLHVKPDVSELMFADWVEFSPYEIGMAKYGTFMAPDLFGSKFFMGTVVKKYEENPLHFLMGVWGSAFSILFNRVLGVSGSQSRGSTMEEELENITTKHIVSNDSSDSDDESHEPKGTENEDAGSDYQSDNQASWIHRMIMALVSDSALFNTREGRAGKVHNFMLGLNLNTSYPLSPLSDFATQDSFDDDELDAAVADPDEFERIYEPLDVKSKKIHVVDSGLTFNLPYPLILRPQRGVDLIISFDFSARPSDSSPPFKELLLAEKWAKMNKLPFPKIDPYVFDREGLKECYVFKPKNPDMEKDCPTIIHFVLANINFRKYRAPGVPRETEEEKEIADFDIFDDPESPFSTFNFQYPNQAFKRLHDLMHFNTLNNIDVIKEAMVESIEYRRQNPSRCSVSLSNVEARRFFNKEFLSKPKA
As to the kind of experiment: Measurement of cPLA2 inhibitory activity (release of [14C]-arachidonic acid from phosphatidyl choline liposome). It counts as biochemical. The following applies: cPLA2 from U937 cytoplasm fraction, [14C]arachidonyl-phosphatidyl choline liposome, 37° C., 60 minutes; read-out: cPLA2 inhibitory activity, 50% inhibiting concentration IC50. The procedure, abridged:
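The read-out is radioactivity from extracted [14C]-arachidonic acid, freed over 60 min at 37° C from liposomes of 14C-arachidonyl phosphatidylcholine (10 μM PC in the added solution). Buffer was 50 mM HEPES pH 7.5 with Ca2+, DTT, NaCl and BSA. IC50 was derived from inhibition relative to enzyme control minus no-enzyme control.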

In test [3] the test system is TPA-induced mouse dermatitis model. Kind of test: TPA-induced mouse dermatitis model (ear thickness). The test is classed as in vivo. The following applies: 50 mg/kg orally 30 minutes before TPA, 6 hours after TPA, C57BL/6 mice. The method, then:
Phorbol ester (TPA) was applied to the ear to elicite acute inflammation having ear edema as a main symptom. In the present test model, it is known that arachidonic acid metabolites, constituting various lipid mediators, are involved in inflammation. By this Experiment, it is possible to evaluate the anti-inflammatory action in vivo of anti-inflammatory drugs acting on the arachidonic acid cascade.
The Experiment was performed with reference to the method of Chang et al. (see Chang J., Eur J Pharmacol 142: 197, 1987). That is, the ear of female C57BL/6 mice (Charles River Japan) were painted with 20 μl of TPA in an acetone solution (concentration 50 μg/ml) to induce dermatitis at the ear. The ear thicknesses before application of TPA and 6 hours after application of TPA were measured using a dial gauge and the increase in ear thickness caused by inflammation was calculated. The test compound or the 0.5% hydroxypropyl cellulose solution as vehicle was administered orally to the mice 30 minutes before application of TPA. Note that the number of mice used in the test was made six per group.
Based on the measurement value, the action of each test compound in suppressing the increase in ear thickness due to application of TPA was evaluated.

For test [4], the system named is LTB4 production in rat mast cell like cell line RBL-2H3. As to the kind of experiment: Calcium ionophore-induced LTB4 production system using RBL-2H3. The test is classed as cell-based. The following applies: 1 h, RBL-2H3, A23187 5 μM, one hour. The method, then: (§1) For the evaluation by LTB4 and Cys-LTs production inhibiting activity, the calcium ionophore-induced LTB4 and Cys-LTs production system using the rat mast cell like cell line RBL-2H3 with reference to the method of Ishiwara et al. (see Ishiwara M. et al., J Pharmacol Exp Ther 307: 583, 2003) was used. That is, rat mast cell like cell line RBL-2H3 cells were suspended in Dulbecco's modified Eagle's medium (Nacalai Tesque) containing 10% bovine fetal serum (BioWhittaker) and 10 μg/ml gentamycin (Invitrogen). The infiltrating cell suspension 200 μl containing 1×10^5 cells per well was inoculated to 96-well culture plate and cultured over night under conditions of 5% CO2 and 37° C. The culture supernatant was removed, then the test compound solution or solvent 50 μl was added. After 30 minutes preculture, calcium ionophore (A23187) was added to a final concentration of 5 μM to induce leukotriene production.
(§2) One hour after calcium ionophore stimulus, the culture supernatant was recovered and the amounts of LTB4 and Cys-LTs in the supernatant were measured using an EIA kit (made by Amersham). Based on the measurement values, the test compound concentrations suppressing 50% of the mediator production at the time of non-addition of a compound (IC50 value) were calculated.

Test [5] relates to PGD2 production in rat mast cell like cell line RBL-2H3. Kind of test: Antigen-induced PGD2 production system using RBL-2H3 sensitized by DNP specific IgE. It counts as cell-based. The following applies: 0.5 h, RBL-2H3, anti-DNP-IgE sensitized, antigen 10 μg/ml, 30 minutes. Here is the method:
To evaluate the PGD2 production inhibiting activity, the antigen-induced PGD2 production system using rat mast cell like cell line RBL-2H3 sensitized by a dinitrophenol (DNP) specific IgE with reference to the method of Yamashita et al. (see Yamashita, M. et al., Br J Pharmacol 129: 367, 2000) was used. That is, rat mast cell like cell line RBL-2H3 cells were suspended in a Dulbecco's modified Eagle's medium (Nacalai Tesque) containing 10% bovine fetal serum (BioWhittaker) and 10 μg/ml gentamycin (Invitrogen). The infiltrating cell suspension 200 μl containing 1×10^5 cells per well was inoculated to 96-well culture plate and cultured over night under conditions of 5% CO2 and 37° C. The culture supernatant was removed, then the suspension was cultured for 2 hours in the presence of an anti-DNP-IgE antibody (1 μg/ml) for 2 hours to sensitize it. After the sensitization, the supernatant was removed and the test compound solution or solvent was added. The resultant product was precultured for 30 minutes, then 10 μg/ml of antigen (DNP-human serum albumin conjugate) was added to elicite PGD2 production.
30 minutes after antigen stimulus, the culture supernatant was recovered and the amount of PGD2 in the supernatant was measured using an EIA kit (made by Cayman). Based on the measurement value, the test compound concentration (IC50 value) suppressing the amount of PGD2 production at the time of nonaddition of the compound by 50% was calculated.

In test [6] the test system is Cys-LTs production in rat mast cell like cell line RBL-2H3. Kind of test: Calcium ionophore-induced Cys-LTs production system using RBL-2H3. It counts as cell-based. The following applies: 1 h, RBL-2H3, A23187 5 μM, one hour. The method, then: as §1, §2

For `O=C(O)CCc1ccc2c(c1)c(CCc1ccccc1)cn2-c1ccccc1` [Example 17, 3-[1-phenyl-3-(2-phenylethyl)-1H-indol-5-yl]propanoic acid 2-amino-2-(hydroxymethyl)propane-1,3-diol salt (1:1)], the values for the IC50 in test [1] and in test [2] were 1.32 µM and 0.038 µM, respectively.

`Cc1c(CCc2ccccc2)c2cc(CCC(=O)O)ccc2n1-c1ccccc1` [Example 48, 3-[2-methyl-1-phenyl-3-(2-phenylethyl)-1H-indol-5-yl]propanoic acid]: the IC50 was found to be 2.49 µM in test [1] and 0.126 µM in test [2].

On to `CCOc1ccc(-n2cc(CCc3ccccc3)c3cc(CCC(=O)C(F)(F)F)ccc32)cc1` [Example 114, 4-[1-(4-ethoxyphenyl)-3-(2-phenylethyl)-1H-indol-5-yl]-1,1,1-trifluorobutan-2-one], for which the IC50 in test [1] is 2.22 µM; in test [2] it was 0.74 µM.

As for `CCOc1ccc(-n2cc(CCc3ccccc3)c3cc(CCC(=O)NC#N)ccc32)cc1` [Example 115, N-cyano-3-[1-(4-ethoxyphenyl)-3-(2-phenylethyl)-1H-indol-5-yl]propanamide], the IC50 in test [1] worked out at 0.3 µM; in test [2], 0.061 µM.

As for `O=C(O)CCc1ccc2c(c1)c(CCc1ccccc1)cn2-c1ccc(OCc2ccccc2)cc1` [Example 124, 3-{1-[4-(benzyloxy)phenyl]-3-(2-phenylethyl)-1H-indol-5-yl}propanoic acid 2-amino-2-(hydroxymethyl)propane-1,3-diol salt (1:1)], the IC50 was 0.13 µM in test [1] and 0.008 µM in test [2].

On to `O=C(O)CCc1ccc2c(c1)c(CCc1ccccc1)cn2-c1cccnc1` [Example 128, 3-[3-(2-phenylethyl)-1-(3-pyridinyl)-1H-indol-5-yl]propanoic acid hydrochloride], for which the IC50 in test [1] came out at 6.43 µM; in test [2] it was 0.25 µM.

For `CN(C)c1ccc(-n2cc(CCc3ccccc3)c3cc(CCC(=O)O)ccc32)nc1` [Example 138, 3-{1-[5-(dimethylamino)-2-pyridinyl]-3-(2-phenylethyl)-1H-indol-5-yl}propanoic acid hydrochloride], the values for the IC50 in test [1] and in test [2] were 0.58 µM and 0.034 µM, respectively.

Take `O=C(O)CCc1ccc2c(c1)c(CCc1ccccc1)cn2-c1ccccc1O` [Example 147, 3-[1-(2-hydroxyphenyl)-3-(2-phenylethyl)-1H-indol-5-yl]propanoic acid]: the IC50 in test [1] was found to be 1.24 µM; in test [2], 0.779 µM.

As for `O=C(O)CCc1ccc2c(c1)c(CCc1ccccc1)cn2-c1cccc(O)c1` [Example 157, 3-[1-(3-hydroxyphenyl)-3-(2-phenylethyl)-1H-indol-5-yl]propanoic acid], the values for the IC50 in test [1] and in test [2] were 2.25 µM and 0.186 µM, respectively.

Consider `O=C(O)CCc1ccc2c(c1)c(CCc1ccccc1)cn2-c1ccc(OC(F)(F)F)cc1` [Example 193, 3-{3-(2-phenylethyl)-1-[4-(trifluoromethoxy)phenyl]-1H-indol-5-yl}propanoic acid 2-amino-2-(hydroxymethyl)propane-1,3-diol salt (1:1)], for which the “Suppression rate of increase in ear thickness” value in test [3] is listed as 19.4%. The IC50 came out at 0.141 µM in test [2], 0.63 µM in test [4], 0.82 µM in test [5] and 1.38 µM in test [6].
